Holding throughout (experiment): Ca2+ release from ER of permeabilized DT40 cells, luminal Mag fluo-4
One assay has as its target T1, IP3R2 (Mus musculus, UniProt Q9Z329).
T1 construct: gene Itpr2; full-length, homotetramer, stably expressed in DT40 cells lacking all endogenous IP3R; saponin-permeabilized cells
The assay is classed as cell-based. The text has this: Ca2+ release from ER of permeabilized DT40 cells, luminal Mag fluo-4 on IP3R2

Assay [1] has as its target T2, IP3R3 (Rattus norvegicus, UniProt Q63269).
T2 construct: gene Itpr3; full-length, homotetramer, stably expressed in DT40 cells lacking all endogenous IP3R; saponin-permeabilized cells
The assay is classed as cell-based. From the text:
(§1) Ca2+ release from ER of permeabilized DT40 cells, luminal Mag fluo-4 on IP3R3

Assay [2] has as its target T2, IP3R3. The assay is classed as biochemical.
From the text: as §1

[3] abbreviates: 100 µM, 1.5 mM MgATP, free Ca2+ ~220 nM, pH 7, 20 °C, thapsigargin 1 µM, unreliable: paper suspects minor contamination by active IP3.

Like-named read-outs stand apart in the source and are kept apart here.

T2 sequence (Q63269 whole entry): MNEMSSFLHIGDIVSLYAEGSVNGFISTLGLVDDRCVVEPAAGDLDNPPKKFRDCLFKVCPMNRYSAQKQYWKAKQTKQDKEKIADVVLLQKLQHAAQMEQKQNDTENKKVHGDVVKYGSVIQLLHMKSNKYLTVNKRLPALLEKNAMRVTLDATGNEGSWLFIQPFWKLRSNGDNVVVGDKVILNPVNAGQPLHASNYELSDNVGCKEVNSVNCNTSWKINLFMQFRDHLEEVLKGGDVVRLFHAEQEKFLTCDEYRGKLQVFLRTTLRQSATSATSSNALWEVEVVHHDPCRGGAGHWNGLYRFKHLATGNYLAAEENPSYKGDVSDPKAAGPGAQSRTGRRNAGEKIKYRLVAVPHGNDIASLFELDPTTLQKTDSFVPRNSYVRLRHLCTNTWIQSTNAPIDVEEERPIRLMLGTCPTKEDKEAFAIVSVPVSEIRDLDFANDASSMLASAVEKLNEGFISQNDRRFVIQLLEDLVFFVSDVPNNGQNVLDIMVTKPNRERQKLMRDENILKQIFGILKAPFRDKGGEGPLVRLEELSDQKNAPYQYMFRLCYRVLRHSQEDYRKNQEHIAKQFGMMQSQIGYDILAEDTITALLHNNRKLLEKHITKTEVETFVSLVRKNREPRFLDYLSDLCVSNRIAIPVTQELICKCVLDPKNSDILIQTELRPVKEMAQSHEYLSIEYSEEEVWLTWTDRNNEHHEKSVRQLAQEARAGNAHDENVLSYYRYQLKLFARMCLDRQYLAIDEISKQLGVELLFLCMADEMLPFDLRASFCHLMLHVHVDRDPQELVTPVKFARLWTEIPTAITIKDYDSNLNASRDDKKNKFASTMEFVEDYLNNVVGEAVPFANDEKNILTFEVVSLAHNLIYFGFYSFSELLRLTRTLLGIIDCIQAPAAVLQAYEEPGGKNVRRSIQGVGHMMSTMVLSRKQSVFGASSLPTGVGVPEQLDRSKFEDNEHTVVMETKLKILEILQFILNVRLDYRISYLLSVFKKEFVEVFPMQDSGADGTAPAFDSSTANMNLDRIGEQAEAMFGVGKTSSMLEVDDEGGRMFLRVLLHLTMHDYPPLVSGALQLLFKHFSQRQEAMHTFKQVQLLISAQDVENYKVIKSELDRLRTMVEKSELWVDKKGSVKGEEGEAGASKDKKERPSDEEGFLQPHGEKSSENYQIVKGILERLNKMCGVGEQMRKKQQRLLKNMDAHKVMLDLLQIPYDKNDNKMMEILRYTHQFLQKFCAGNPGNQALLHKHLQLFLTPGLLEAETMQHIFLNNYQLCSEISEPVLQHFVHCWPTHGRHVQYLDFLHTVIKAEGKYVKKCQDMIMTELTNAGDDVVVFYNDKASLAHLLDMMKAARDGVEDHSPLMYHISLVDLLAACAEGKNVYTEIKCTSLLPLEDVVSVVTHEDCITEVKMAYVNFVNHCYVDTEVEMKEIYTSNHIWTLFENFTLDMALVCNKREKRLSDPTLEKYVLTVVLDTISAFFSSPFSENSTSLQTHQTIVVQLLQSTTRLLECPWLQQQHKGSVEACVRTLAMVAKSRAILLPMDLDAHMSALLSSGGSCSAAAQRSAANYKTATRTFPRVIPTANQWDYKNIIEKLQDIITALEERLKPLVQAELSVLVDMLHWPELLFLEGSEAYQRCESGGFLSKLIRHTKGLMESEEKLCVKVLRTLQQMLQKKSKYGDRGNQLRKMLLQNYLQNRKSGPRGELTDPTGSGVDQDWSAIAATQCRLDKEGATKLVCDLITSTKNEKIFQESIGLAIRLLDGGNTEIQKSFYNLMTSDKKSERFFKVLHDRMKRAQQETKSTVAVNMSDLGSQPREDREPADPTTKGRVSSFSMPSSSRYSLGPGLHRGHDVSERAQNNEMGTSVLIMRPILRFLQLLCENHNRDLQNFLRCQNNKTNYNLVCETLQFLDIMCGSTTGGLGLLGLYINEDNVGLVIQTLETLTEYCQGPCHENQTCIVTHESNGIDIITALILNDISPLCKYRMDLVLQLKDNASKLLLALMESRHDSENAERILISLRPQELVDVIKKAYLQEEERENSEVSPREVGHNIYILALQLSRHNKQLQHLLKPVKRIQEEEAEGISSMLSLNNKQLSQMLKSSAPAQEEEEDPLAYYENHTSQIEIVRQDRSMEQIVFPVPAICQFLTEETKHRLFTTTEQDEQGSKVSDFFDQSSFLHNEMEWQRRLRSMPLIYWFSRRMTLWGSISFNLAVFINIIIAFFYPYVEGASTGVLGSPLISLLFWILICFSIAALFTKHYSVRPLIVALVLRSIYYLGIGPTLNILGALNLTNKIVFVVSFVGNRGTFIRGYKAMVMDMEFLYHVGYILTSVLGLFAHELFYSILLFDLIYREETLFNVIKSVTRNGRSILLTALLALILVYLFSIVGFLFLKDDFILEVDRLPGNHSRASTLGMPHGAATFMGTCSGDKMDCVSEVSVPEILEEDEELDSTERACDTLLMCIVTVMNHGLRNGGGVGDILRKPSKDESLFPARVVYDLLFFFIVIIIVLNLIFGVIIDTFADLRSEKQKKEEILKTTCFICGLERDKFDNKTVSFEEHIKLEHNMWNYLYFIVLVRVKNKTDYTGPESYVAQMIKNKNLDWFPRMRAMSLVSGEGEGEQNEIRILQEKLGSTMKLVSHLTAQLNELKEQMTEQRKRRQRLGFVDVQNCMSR

`O=P(O)(O)O[C@H]1[C@H](O)[C@@H](O)[C@H](OP(=O)(O)O)[C@@H](OP(=O)(O)O)[C@H]1O` [(1,3,4)IP3]: the “IP3R2 / Ca^2+release (%)” value at IP3R2 (setting [3]) is on record as 18±6%. Further, the “IP3R3 / Ca^2+release (%)” value at IP3R3 [1] (setting [3]) was 2±1%.
As for `O=P(O)(O)O[C@@H]1[C@H](O)[C@H](O)[C@@H](OP(=O)(O)O)[C@H](OP(=O)(O)O)[C@H]1O` [(1,4,5)IP3], the EC50 (usually the concentration giving half of the maximal effect) at IP3R2 was found to be 0.145 µM; on IP3R3 [1], 0.417 µM.
Take `O=P(O)(O)O[C@@H]1[C@@H](O)[C@H](OP(=O)(O)O)[C@H](O)C[C@H]1OP(=O)(O)O` [3-deoxy(1,4,5)IP3]: the EC50 was 5.89 µM on IP3R2 and 15.8 µM on IP3R3 [2].
Regarding `CN(C)c1ccc(C(=C2C=CC(=[N+](C)C)C=C2)c2ccc(C(=O)NCCCOP(=O)(O)O[C@@H]3[C@H](O)[C@H](O)[C@@H](OP(=O)(O)O)[C@H](OP(=O)(O)O)[C@H]3O)cc2)cc1` [MG(1,4,5)IP3], the figures for the EC50 on IP3R2 and on IP3R3 [2] were 0.708 µM and 1.74 µM, respectively.
`O=P(O)(O)O[C@@H]1[C@@H](O)[C@H](O)[C@H](O)[C@H](O)[C@H]1OP(=O)(O)O` [(4,5)IP2]: the EC50 amounted to 6.31 µM at IP3R2 and 11.5 µM on IP3R3 [1].
Taken in the same sequence, the figures for `O=P(O)(O)O[C@@H]1[C@@H](O)[C@H](OP(=O)(O)O)C[C@H](O)[C@H]1OP(=O)(O)O` [2-deoxy(1,4,5)IP3] were 0.115 µM and 0.324 µM.
Turning to `O=P(O)(O)O[C@@H]1[C@@H](O)[C@@H](O)[C@@H](OP(=O)(O)O)[C@H](OP(=O)(O)O)[C@H]1O` [(1,4,6)IP3], the values for the EC50 at IP3R2 and on IP3R3 [1] were 12.6 µM and 15.8 µM, respectively.

Source of the values: publication PMC3556037, “Stimulation of Inositol 1,4,5-Trisphosphate (IP3) Receptor Subtypes by Analogues of IP3” (PLoS ONE, 2013).
